Here are results for eight compounds from ChEMBL document CHEMBL3045824, “Unique neonicotinoid binding conformations conferring selective receptor interactions” (J Agric Food Chem, 2011).

The target of assay [1] is Soluble acetylcholine receptor (Aplysia californica, UniProt Q8WSF8, Y55W). The assay can be described thus: Binding affinity to salt water mollusc Aplysia californica AChBP Y55W mutant assessed as [3H]acetamiprid binding by radioligand binding assay.
For assay [2], the target named is Neuronal acetylcholine receptor subunit alpha-4 (Gallus gallus, UniProt P09482+P09484). The assay can be described thus: Binding affinity to recombinant Gallus gallus (chicken) alpha4beta2 nicotinic acetylcholine receptor assessed as [3H]NIC binding by radioligand binding assay.
Assay [3] has as its target T1, Acetylcholine receptor subunit beta-like 2 (Drosophila melanogaster, UniProt P25162).
T1 sequence (P25162 whole entry): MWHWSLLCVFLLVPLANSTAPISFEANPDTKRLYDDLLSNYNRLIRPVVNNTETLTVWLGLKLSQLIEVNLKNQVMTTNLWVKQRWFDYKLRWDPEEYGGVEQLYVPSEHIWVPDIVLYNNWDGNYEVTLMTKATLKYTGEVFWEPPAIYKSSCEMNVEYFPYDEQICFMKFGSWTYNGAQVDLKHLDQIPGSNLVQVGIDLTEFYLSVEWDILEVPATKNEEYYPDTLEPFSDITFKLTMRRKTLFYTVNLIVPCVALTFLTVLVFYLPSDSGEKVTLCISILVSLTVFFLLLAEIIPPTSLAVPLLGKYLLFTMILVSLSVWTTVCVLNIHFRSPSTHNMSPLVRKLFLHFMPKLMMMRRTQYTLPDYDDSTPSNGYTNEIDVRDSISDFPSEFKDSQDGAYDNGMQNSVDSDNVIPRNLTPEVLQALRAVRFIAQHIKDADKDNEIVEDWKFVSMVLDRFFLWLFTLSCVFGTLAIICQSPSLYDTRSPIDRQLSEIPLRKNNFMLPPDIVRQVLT
Nature of the assay: Binding affinity to Drosophila brain nicotinic acetylcholine receptor assessed as [3H]IMI binding by radioligand binding assay.

Assay [4] addresses Acetylcholine-binding protein (Lymnaea stagnalis, UniProt P58154). Nature of the assay: Binding affinity to freshwater snail Lymnaea stagnalis AChBP assessed as [3H]EPI binding by radioligand binding assay.

Sequence of Acetylcholine-binding protein (P58154 whole entry): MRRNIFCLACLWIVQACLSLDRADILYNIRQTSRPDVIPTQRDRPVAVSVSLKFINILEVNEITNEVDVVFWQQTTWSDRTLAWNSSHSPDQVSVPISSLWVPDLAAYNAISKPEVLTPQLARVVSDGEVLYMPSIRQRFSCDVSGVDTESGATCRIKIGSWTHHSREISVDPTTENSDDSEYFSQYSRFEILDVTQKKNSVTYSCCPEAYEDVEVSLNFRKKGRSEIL
Sequence of Neuronal acetylcholine receptor subunit alpha-4 (P09482 whole entry, one chain of several): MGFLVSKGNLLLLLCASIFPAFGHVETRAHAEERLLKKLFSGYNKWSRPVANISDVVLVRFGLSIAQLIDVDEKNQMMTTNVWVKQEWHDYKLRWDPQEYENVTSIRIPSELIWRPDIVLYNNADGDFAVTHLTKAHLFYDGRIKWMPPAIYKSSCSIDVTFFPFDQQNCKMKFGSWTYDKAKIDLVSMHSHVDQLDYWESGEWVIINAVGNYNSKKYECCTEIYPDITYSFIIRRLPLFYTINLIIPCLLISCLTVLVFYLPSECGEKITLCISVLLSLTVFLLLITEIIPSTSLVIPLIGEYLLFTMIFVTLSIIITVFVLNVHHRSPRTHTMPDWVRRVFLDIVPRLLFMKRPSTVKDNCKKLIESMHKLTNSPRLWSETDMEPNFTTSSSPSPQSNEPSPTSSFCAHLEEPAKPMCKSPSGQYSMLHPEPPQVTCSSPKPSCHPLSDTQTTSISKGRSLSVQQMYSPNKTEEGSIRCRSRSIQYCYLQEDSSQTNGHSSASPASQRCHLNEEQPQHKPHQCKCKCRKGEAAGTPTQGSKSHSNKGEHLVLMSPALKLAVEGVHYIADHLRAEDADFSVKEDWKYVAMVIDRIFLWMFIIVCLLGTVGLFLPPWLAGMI

For orientation: Ki means a measure of affinity in units of concentration, obtained from inhibition or displacement. Consider `O=[N+]([O-])/C=C1\NCCN1Cc1ccc(Cl)nc1`, for which the Ki turned out to be 1.7 nM in assay [1], 60 nM in assay [2] and 0.12 nM in assay [3].
With `C/C(=N\C#N)N(C)Cc1ccc(Cl)nc1`, the Ki in assay [4] is 1200 nM; in assay [1] it was 32 nM; in assay [2], 680 nM; in assay [3], 7.2 nM.
In the case of `Clc1ccc(C2CC3CCC2N3)cn1` (racemic) [EPIBATIDINE], the inhibition constant (Ki) in assay [4] came to 0.3 nM; in assay [1], 1 nM; in assay [3], 290 nM.
Consider `N=C1SCCN1Cc1ccc(Cl)nc1` [DESCYANOTHIACLOPRID], for which the inhibitory constant (Ki) in assay [4] came to 16 nM; in assay [1] it was 0.6 nM; in assay [2], 1.2 nM; in assay [3] it was 130 nM.
For `N=C1NCCN1Cc1ccc(Cl)nc1` [DESNITROIMIDACLOPRID] the same measures were 18 nM, 15 nM, 2.2 nM and 1000 nM.
`O=[N+]([O-])NC1=NCCN1Cc1ccc(Cl)nc1` [IMIDACLOPRID]: the inhibition constant Ki was 19 nM in assay [1], 970 nM in assay [2] and 3 nM in assay [3].
For `CN1CCC[C@H]1c1cccnc1` [NICOTINE] the same measures were 30 nM, 1.9 nM and 2700 nM.
For `N#C/N=C1\SCCN1Cc1ccc(Cl)nc1` [THIACLOPRID] the same measures were 3.9 nM, 240 nM and 1.2 nM.
